The values below are quoted from earlier work in PMC7993281 (Clinical and Translational Science, 2020).

The series has as its system plasma GlcCer. Particulars: healthy subjects; cited from earlier work.

Regarding `CC(C)(NC(=O)O[C@@H]1CN2CCC1CC2)c1csc(-c2ccc(F)cc2)n1` [venglustat], the “decrease of plasma GlcCer” value is given as “up to 80%”.
